# Data taken from patent US20060069132A1, “Azolecarboxamide herbicides” (priority 2004, published 2006).
# Legend:
# wheat = assay: Test B postemergence herbicide test; assay type: in vivo, Triticum aestivum; design: key to Wheat plant response rating: 0 = no effect, 100 = complete control; conditions: postemergence, visual rating, scale 0 (no effect) to 100 (complete control)
# How it was run: (§1)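 Scale 0–100: zero equals no visible effect, 100 complete control, judged by eye relative to controls. Timing: 13 to 15 days in greenhouse post-treatment. Growth stage at spraying: two leaves (paddy) or one to four leaves, 2–18 cm (postemergence).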
# pigweed = assay: Test B pre-/postemergence herbicide test; assay type: in vivo, Amaranthus retroflexus; conditions: for Pigweed plant response rating: postemergence, scale 0 (no effect) to 100 (complete control)
# How it was run: (§2)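 Seeds were planted and treated preemergence with compounds formulated in a non-phytotoxic solvent mixture containing surfactant, while plants at the 1- to 4-leaf stage (2 to 18 cm) received postemergence sprays. Flooded paddy plants were grown to the 2-leaf stage. After 13 to 15 days in a greenhouse, injury was visually rated 0–100 against untreated controls.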
# barnyardgrass [1] = assay: Test B flooded paddy test; assay type: in vivo, Echinochloa crus-galli; conditions: 1000 g ai/ha, visual rating, scale 0 to 100 (0 no effect, 100 complete control), 13 to 15 days
# How it was run: (§3)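 Read-out: visual comparison with controls, scored 0 to 100, where 100 means complete control and 0 no effect. Formulated chemicals were applied postemergence to plants 2–18 cm tall (1- to 4-leaf), or to flooded-paddy plants at the 2-leaf stage, then held 13 to 15 days under glass.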
# wild oat = assay: Test B postemergence herbicide test; assay type: in vivo, Avena fatua; conditions: postemergence, visual rating, scale 0 (no effect) to 100 (complete control)
# How it was run: as §1
# ducksalad = assay: Test B flooded paddy test; assay type: in vivo, Heteranthera limosa; conditions: 1000 g ai/ha, visual rating, scale 0 to 100 (0 no effect, 100 complete control), 13 to 15 days
# How it was run: as §3
# velvetleaf = assay: Test B pre-/postemergence herbicide test; assay type: in vivo, Abutilon theophrasti; conditions: for Velvetleaf plant response rating: postemergence, scale 0 (no effect) to 100 (complete control)
# How it was run: as §2
# Surinam grass = assay: Test B pre-/postemergence herbicide test; assay type: in vivo, Urochloa decumbens; conditions: for Surinam Grass plant response rating: postemergence, scale 0 (no effect) to 100 (complete control)
# How it was run: as §2
# cocklebur = assay: Test B pre-/postemergence herbicide test; assay type: in vivo, Xanthium strumarium; conditions: for Cocklebur plant response rating: postemergence, scale 0 (no effect) to 100 (complete control)
# How it was run: (§4)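 Pre: seeds sown, then sprayed. Post: 1–4-leaf plants (2–18 cm) sprayed at the same time. Paddy: flooded, treated at 2-leaf stage. Formulation: non-phytotoxic solvent with surfactant. Greenhouse 13–15 days; visual 0–100 score relative to controls.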
# barnyardgrass [2] = assay: Test B pre-/postemergence herbicide test; assay type: in vivo, Echinochloa crus-galli; conditions: for Barnyardgrass plant response rating: postemergence, scale 0 (no effect) to 100 (complete control)
# How it was run: as §4
# giant foxtail = assay: Test B pre-/postemergence herbicide test; assay type: in vivo, Setaria faberi; conditions: for Foxtail, Giant plant response rating: postemergence, scale 0 (no effect) to 100 (complete control)
# How it was run: as §2
# rice [3] = assay: Test B pre-/postemergence herbicide test; assay type: in vivo, Oryza sativa; conditions: 0 = no effect, 100 = complete control, preemergence
# Source text: Seeds selected from barnyardgrass (Echinochloa crus-galli (L.) Beauv.), Surinam grass (Urochloa decumbens (Staph) R. D. Webster, previously named Brachiaria decumbens Stapf), cocklebur (Xanthium strumarium L.), corn (Zea mays L.), large crabgrass (Digitaria sanguinalis (L.) Scop.), giant foxtail (Setaria faberi Herim.), lambsquarters (Chenopodium album L.), morningglory (Ipomoea coccinea L.), pigweed (Amaranthus retroflexus L.), rice (Oryza sativa L.) and velvetleaf (Abutilon theophrasti Medik.) were planted and treated preemergence with test chemicals formulated in a non-phytotoxic solvent mixture which included a surfactant.
# At the same time, plants selected from these crop and weed species and also blackgrass (Alopecurus myosuroides Huds.), wheat (Triticum aestivum L.) and wild oat (Avena fatua L.) were treated with postemergence applications of test chemicals formulated in the same manner. Plants ranged in height from 2 to 18 cm (1- to 4-leaf stage) for postemergence treatments. Plant species in the flooded paddy test consisted of rice (Oryza sativa L.), small flower umbrella sedge (Cyperus difformis L.), ducksalad (Heteranthera limosa (Sw.) Willd.) and barnyardgrass (Echinochloa crus-galli (L.) Beauv.) grown to the 2-leaf stage for testing. Treated plants and controls were maintained in a greenhouse for 13 to 15 days, after which time all species were compared to controls and visually evaluated. Plant response ratings, summarized in Table B, are based on a scale of 0 to 100 where 0 is no effect and 100 is complete control. A dash (-) response means no test result.
# rice [4] = assay: Test B flooded paddy test; assay type: in vivo, Oryza sativa; conditions: 1000 g ai/ha, visual rating, scale 0 to 100 (0 no effect, 100 complete control), 13 to 15 days
# How it was run: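 Visual ratings, 0 (no effect) to 100 (complete control), made versus controls after 13–15 d greenhouse. Paddy plants treated at 2-leaf stage; postemergence plants at 1- to 4-leaf stage, 2–18 cm tall.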
# morningglory = assay: Test B pre-/postemergence herbicide test; assay type: in vivo, Ipomoea coccinea; conditions: for Morningglory plant response rating: postemergence, scale 0 (no effect) to 100 (complete control)
# How it was run: as §4
# corn = assay: Test B pre-/postemergence herbicide test; assay type: in vivo, Zea mays; conditions: for Corn plant response rating: postemergence, scale 0 (no effect) to 100 (complete control)
# How it was run: as §2
# lambsquarters = assay: Test B pre-/postemergence herbicide test; assay type: in vivo, Chenopodium album; conditions: for Lambsquarters plant response rating: postemergence, scale 0 (no effect) to 100 (complete control)
# How it was run: as §2
# large crabgrass = assay: Test B pre-/postemergence herbicide test; assay type: in vivo, Digitaria sanguinalis; conditions: for Crabgrass, Large plant response rating: postemergence, scale 0 (no effect) to 100 (complete control)
# How it was run: as §2
# blackgrass = assay: Test B postemergence herbicide test; assay type: in vivo, Alopecurus myosuroides; conditions: postemergence, visual rating, scale 0 (no effect) to 100 (complete control)
# How it was run: as §3
# [5] = 125 g ai/ha, 0 = no effect, 100 = complete control, preemergence
# [6] = 500 g ai/ha, visual rating, 0 = no effect, 100 = complete control, preemergence
structure (smiles),measurement,setting,value
CCc1nc(C(C)(C)C)sc1C(=O)Nc1cc(C(=O)N(CC)CC)ccc1F [Compound 230],Wheat plant response rating,wheat; 125 g ai/ha,10
same,Wheat plant response rating,wheat; 500 g ai/ha,20
same,Pigweed plant response rating (0 to 100 scale),pigweed; [5],40
same,"Plant response rating, Pigweed",pigweed; [6],80
same,Pigweed plant response rating,"pigweed; 125 g ai/ha, visual rating",40
same,Pigweed plant response rating,"pigweed; 500 g ai/ha, visual rating",60
same,Barnyardgrass plant response rating,barnyardgrass [1],50
same,"Oat, Wild plant response rating",wild oat; 125 g ai/ha,20
same,"Oat, Wild plant response rating",wild oat; 500 g ai/ha,40
same,Ducksalad plant response rating,ducksalad,60
same,Velvetleaf plant response rating (0 to 100 scale),velvetleaf; [5],10
same,"Plant response rating, Velvetleaf",velvetleaf; [6],30
same,Velvetleaf plant response rating,"velvetleaf; 125 g ai/ha, visual rating",20
same,Velvetleaf plant response rating,"velvetleaf; 500 g ai/ha, visual rating",30
same,Surinam Grass plant response rating (0 to 100 scale),Surinam grass; [5],0
same,"Plant response rating, Surinam Grass",Surinam grass; [6],10
same,Surinam Grass plant response rating,"Surinam grass; 125 g ai/ha, visual rating",10
same,Surinam Grass plant response rating,"Surinam grass; 500 g ai/ha, visual rating",10
same,Cocklebur plant response rating (0 to 100 scale),cocklebur; [5],0
same,"Plant response rating, Cocklebur",cocklebur; [6],0
same,Cocklebur plant response rating,"cocklebur; 125 g ai/ha, visual rating",0
same,Cocklebur plant response rating,"cocklebur; 500 g ai/ha, visual rating",10
same,Barnyardgrass plant response rating (0 to 100 scale),barnyardgrass [2]; [5],10
same,"Plant response rating, Barnyardgrass",barnyardgrass [2]; [6],50
same,Barnyardgrass plant response rating,"barnyardgrass [2]; 125 g ai/ha, visual rating",0
same,Barnyardgrass plant response rating,"barnyardgrass [2]; 500 g ai/ha, visual rating",20
same,"Foxtail, Giant plant response rating (0 to 100 scale)",giant foxtail; [5],10
same,"Plant response rating, Foxtail, Giant",giant foxtail; [6],80
same,"Foxtail, Giant plant response rating","giant foxtail; 125 g ai/ha, visual rating",10
same,"Foxtail, Giant plant response rating","giant foxtail; 500 g ai/ha, visual rating",20
same,Rice plant response rating (0 to 100 scale),rice [3]; 125 g ai/ha,0
same,"Plant response rating, Rice","rice [3]; 500 g ai/ha, visual rating",0
same,Rice plant response rating,rice [4],60
same,Morningglory plant response rating (0 to 100 scale),morningglory; [5],10
same,"Plant response rating, Morningglory",morningglory; [6],10
same,Morningglory plant response rating,"morningglory; 125 g ai/ha, visual rating",20
same,Morningglory plant response rating,"morningglory; 500 g ai/ha, visual rating",70
same,Corn plant response rating (0 to 100 scale),corn; [5],0
same,"Plant response rating, Corn",corn; [6],10
same,Corn plant response rating,"corn; 125 g ai/ha, visual rating",10
same,Corn plant response rating,"corn; 500 g ai/ha, visual rating",20
same,Lambsquarters plant response rating (0 to 100 scale),lambsquarters; [5],20
same,"Plant response rating, Lambsquarters",lambsquarters; [6],90
same,Lambsquarters plant response rating,"lambsquarters; 125 g ai/ha, visual rating",50
same,Lambsquarters plant response rating,"lambsquarters; 500 g ai/ha, visual rating",60
same,"Crabgrass, Large plant response rating (0 to 100 scale)",large crabgrass; [5],20
same,"Plant response rating, Crabgrass, Large",large crabgrass; [6],70
same,"Crabgrass, Large plant response rating","large crabgrass; 125 g ai/ha, visual rating",10
same,"Crabgrass, Large plant response rating","large crabgrass; 500 g ai/ha, visual rating",20
same,Blackgrass plant response rating,blackgrass; 125 g ai/ha,30
same,Blackgrass plant response rating,blackgrass; 500 g ai/ha,30
